Measurements from patent publication US6737383B1, “Herbicidal oxadiazolidines” (priority 1999, dated 2004).

What was measured:
[1] = test system: blackgrass; test: Test B pre/postemergence blackgrass; format: in vivo, Alopecurus myosuroides
Procedure, shortened: (§1)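 Test chemicals in a non-phytotoxic solvent mixture with surfactant were sprayed preemergence onto planted seeds and postemergence onto plants 2 to 18 cm tall (1- to 4-leaf stage). After twelve to sixteen days in a greenhouse, injury was visually rated against untreated controls from 0 (no effect) to 10 (complete control).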

[2] = test system: cocklebur; test: Test B pre/postemergence cocklebur; format: in vivo, Xanthium strumarium
Procedure, shortened: as §1

[3] = test system: rape; test: Test B pre/postemergence rape; format: in vivo, Brassica napus
Procedure, shortened: as §1

[4] = test system: corn; test: Test B pre/postemergence corn; format: in vivo, Zea mays
Procedure, shortened: as §1

[5] = test system: wheat; test: Test B pre/postemergence wheat; format: in vivo, Triticum aestivum
Procedure, shortened: as §1

[6] = test system: soybean; test: Test B pre/postemergence soybean; format: in vivo, Glycine max
Procedure, shortened: as §1

[7] = test system: sugar beet; test: Test B pre/postemergence sugar beet; format: in vivo, Beta vulgaris
Procedure, shortened: as §1

[8] = test system: bedstraw; test: Test B pre/postemergence bedstraw; format: in vivo, Galium aparine
Procedure, shortened: as §1

[9] = test system: wild oat; test: Test B pre/postemergence wild oat; format: in vivo, Avena fatua
Procedure, shortened: as §1

[10] = test system: surinam grass; test: Test B pre/postemergence surinam grass; format: in vivo, Brachiaria decumbens
Procedure, shortened: as §1

[11] = test system: purple nutsedge; test: Test B pre/postemergence purple nutsedge; format: in vivo, Cyperus rotundus
Procedure, shortened: as §1

[12] = test system: bamyardgrass; test: Test B flood test barnyardgrass; format: in vivo, Echinochloa crus-galli
Procedure, shortened: (§2)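 Each value is a visual injury score relative to controls, with 10 meaning complete control and 0 no effect. Evaluation took place twelve to sixteen days after the 2-leaf-stage plants were treated and kept in the greenhouse.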

[13] = test system: velvetleaf; test: Test B pre/postemergence velvetleaf; format: in vivo, Abutilon theophrasti
Procedure, shortened: as §1

[14] = test system: smallflower flatsedge; test: Test B flood test smallflower flatsedge; format: in vivo, Cyperus difformis
Procedure, shortened: as §2

[15] = test system: pigweed; test: Test B pre/postemergence pigweed; format: in vivo, Amaranthus retroflexus
Procedure, shortened: as §1

[16] = test system: crabgrass; test: Test B pre/postemergence crabgrass; format: in vivo, Digitaria sanguinalis
Procedure, shortened: as §1

[17] = Preemergence, Rate 62 g/ha, scale of 0 to 10 where 0 is no effect and 10 is complete control
[18] = Preemergence, Rate 250 g/ha, scale of 0 to 10 where 0 is no effect and 10 is complete control
[19] = Preemergence, Rate 500 g/ha, scale of 0 to 10 where 0 is no effect and 10 is complete control
[20] = Rate 62 g/ha, Postemergence, scale of 0 to 10 where 0 is no effect and 10 is complete control
[21] = Rate 125 g/ha, Postemergence, scale 0 to 10
[22] = Rate 125 g/ha, Preemergence, scale of 0 to 10 where 0 is no effect and 10 is complete control
[23] = Rate 500 g/ha, Postemergence, scale 0 to 10
[24] = Rate 62 g/ha, headed Pre-emergence (flood test species), scale 0 to 10 (0 no effect, 10 complete control)
[25] = Rate 125 g/ha, Pre-emergence, flood test species, scale 0 to 10 where 0 is no effect and 10 is complete control
[26] = Rate 250 g/ha, Pre-emergence, flood-test species, scale 0 to 10, 0 is no effect, 10 is complete control
[27] = Rate 500 g/ha, Pre-emergence, flood test species, scale 0 to 10 (0 no effect, 10 complete control)

CC(C)N(C(=O)n1oc(=O)n(CCC(F)=C(F)F)c1=O)c1ccc(F)cc1 [Compound 218]
Blackgrass plant response rating [1, 17]: 8
Blackgrass plant response rating [1, 18]: 9
Plant response rating, Blackgrass [1, 19]: 10
Blackgrass plant response rating [1, 20]: 5
Blackgrass plant response rating [1, 21]: 5
Blackgrass plant response rating [1, 22]: 9
Plant response rating (0 to 10; 0 is no effect, 10 is complete control), Blackgrass ([1]; Rate 250 g/ha, Postemergence): 7
Blackgrass plant response rating [1, 23]: 8
Cocklebur plant response rating [2, 17]: 0
Cocklebur plant response rating [2, 18]: 0
Plant response rating, Cocklebur [2, 19]: 0
Cocklebur plant response rating [2, 20]: 0
Cocklebur plant response rating [2, 21]: 0
Cocklebur plant response rating [2, 22]: 0
Plant response rating (0 to 10; 0 is no effect, 10 is complete control), Cocklebur ([2]; Rate 250 g/ha, Postemergence): 3
Cocklebur plant response rating [2, 23]: 4
Rape plant response rating [3, 17]: 0
Rape plant response rating [3, 18]: 0
Plant response rating, Rape [3, 19]: 2
Rape plant response rating [3, 20]: 0
Rape plant response rating [3, 21]: 1
Rape plant response rating [3, 22]: 0
Plant response rating (0 to 10; 0 is no effect, 10 is complete control), Rape ([3]; Rate 250 g/ha, Postemergence): 6
Rape plant response rating [3, 23]: 7
Corn plant response rating [4, 17]: 0
Corn plant response rating [4, 18]: 0
Plant response rating, Corn [4, 19]: 6
Corn plant response rating [4, 20]: 0
Corn plant response rating [4, 21]: 0
Corn plant response rating [4, 22]: 0
Plant response rating (0 to 10; 0 is no effect, 10 is complete control), Corn ([4]; Rate 250 g/ha, Postemergence): 0
Corn plant response rating [4, 23]: 0
Wheat plant response rating [5, 17]: 0
Wheat plant response rating [5, 18]: 0
Plant response rating, Wheat [5, 19]: 3
Wheat plant response rating [5, 20]: 0
Wheat plant response rating [5, 21]: 0
Wheat plant response rating [5, 22]: 0
Plant response rating (0 to 10; 0 is no effect, 10 is complete control), Wheat ([5]; Rate 250 g/ha, Postemergence): 0
Soybean plant response rating [6, 17]: 0
Soybean plant response rating [6, 18]: 2
Plant response rating, Soybean [6, 19]: 6
Soybean plant response rating [6, 20]: 3
Soybean plant response rating [6, 21]: 4
Soybean plant response rating [6, 22]: 2
Plant response rating (0 to 10; 0 is no effect, 10 is complete control), Soybean ([6]; Rate 250 g/ha, Postemergence): 6
Soybean plant response rating [6, 23]: 7
Sugarbeets plant response rating [7, 17]: 0
Sugarbeets plant response rating [7, 18]: 6
Plant response rating, Sugarbeets [7, 19]: 7
Sugarbeets plant response rating [7, 20]: 2
Sugarbeets plant response rating [7, 21]: 2
Sugarbeets plant response rating [7, 22]: 1
Plant response rating (0 to 10; 0 is no effect, 10 is complete control), Sugarbeets ([7]; Rate 250 g/ha, Postemergence): 2
Sugarbeets plant response rating [7, 23]: 4
Bedstraw plant response rating [8, 17]: 0
Bedstraw plant response rating [8, 18]: 0
Plant response rating, Bedstraw [8, 19]: 3
Bedstraw plant response rating [8, 20]: 6
Bedstraw plant response rating [8, 21]: 8
Bedstraw plant response rating [8, 22]: 0
Bedstraw plant response rating [8, 23]: 8
Wild oats plant response rating [9, 17]: 5
Wild oats plant response rating [9, 18]: 7
Plant response rating, Wild oats [9, 19]: 9
Wild oats plant response rating [9, 20]: 0
Wild oats plant response rating [9, 21]: 0
Wild oats plant response rating [9, 22]: 6
Plant response rating (0 to 10; 0 is no effect, 10 is complete control), Wild oats ([9]; Rate 250 g/ha, Postemergence): 1
B. signalgrass plant response rating [10, 17]: 0
B. signalgrass plant response rating ([10]; Preemergence, Rate 250 g/ha, scale 0 to 10, 0 is no effect, 10 is complete control): 6
Plant response rating, B. signalgrass [10, 19]: 7
B. signalgrass plant response rating [10, 20]: 0
B. signalgrass plant response rating ([10]; Rate 125 g/ha, Postemergence, scale 0 (no effect) to 10 (complete control)): 0
B. signalgrass plant response rating [10, 22]: 4
Plant response rating (0 to 10; 0 is no effect, 10 is complete control), B. signalgrass ([10]; Rate 250 g/ha, Postemergence): 3
B. signalgrass plant response rating ([10]; Rate 500 g/ha, Postemergence, scale 0 to 10, 0 no effect, 10 complete control): 7
Plant response rating, Nutsedge [11, 19]: 0
Nutsedge plant response rating [11, 20]: 0
Nutsedge plant response rating [11, 21]: 0
Plant response rating (0 to 10; 0 is no effect, 10 is complete control), Nutsedge ([11]; Rate 250 g/ha, Postemergence): 0
Nutsedge plant response rating [11, 23]: 0
Barnyardgrass plant response rating [12, 24]: 0
Barnyardgrass plant response rating [12, 25]: 0
Barnyardgrass plant response rating [12, 26]: 0
Barnyardgrass plant response rating [12, 27]: 0
Velvetleaf plant response rating [13, 17]: 0
Velvetleaf plant response rating [13, 18]: 0
Plant response rating, Velvetleaf [13, 19]: 2
Velvetleaf plant response rating [13, 20]: 0
Velvetleaf plant response rating [13, 21]: 0
Velvetleaf plant response rating [13, 22]: 0
Plant response rating (0 to 10; 0 is no effect, 10 is complete control), Velvetleaf ([13]; Rate 250 g/ha, Postemergence): 2
S. Flatsedge plant response rating [14, 24]: 0
S. Flatsedge plant response rating [14, 25]: 0
S. Flatsedge plant response rating [14, 26]: 0
S. Flatsedge plant response rating [14, 27]: 0
Redroot pigweed plant response rating [15, 17]: 6
Redroot pigweed plant response rating [15, 18]: 8
Plant response rating, Redroot pigweed [15, 19]: 10
Redroot pigweed plant response rating [15, 20]: 0
Redroot pigweed plant response rating [15, 21]: 1
Redroot pigweed plant response rating [15, 22]: 1
Plant response rating (0 to 10; 0 is no effect, 10 is complete control), Redroot pigweed ([15]; Rate 250 g/ha, Postemergence): 3
Redroot pigweed plant response rating [15, 23]: 7
Crabgrass plant response rating [16, 17]: 4
Crabgrass plant response rating [16, 18]: 6
Plant response rating, Crabgrass [16, 19]: 7
Crabgrass plant response rating [16, 20]: 1
Crabgrass plant response rating [16, 21]: 4
Crabgrass plant response rating [16, 22]: 4
Plant response rating (0 to 10; 0 is no effect, 10 is complete control), Crabgrass ([16]; Rate 250 g/ha, Postemergence): 5
Crabgrass plant response rating [16, 23]: 9
